Read-outs that look alike come from different tables or passages of the source.
Key:
[1] = tested on: JAK1 dependent pathway (IFNα induced pSTAT1) in human whole blood; assay: Whole blood assay, IFNα stimulation, Phospho-STAT1 ELISA; type: cell-based; settings: for IC50: Homo sapiens, 6 blood donors, ± SEM, read-out: pIC50 for inhibiting the INFα induced increase of pSTAT1 levels (converted)
Procedure: The pH of the buffer was 7.3.
Proteinase inhibitors were added to the buffer before use.
The stock solution was stored at −20° C.
Human blood was collected in heparinized tubes. The blood was divided in aliquots of 392 μL.
The samples were incubated on ice for 15 min.
The cellular extracts were thawed on ice. […] The strips were incubated overnight at 4° C.
Absorbance was measured at 450 nm.

[2] = tested on: JAK2-dependent pathway (GM-CSF stimulated STAT5 phosphorylation, CD14+ cells) in human whole blood; assay: Whole blood assay, GM-CSF stimulation, Phospho-STAT5 FACS; type: cell-based; settings: mean of 3 healthy volunteers, read-out: pIC50 in the inhibition of STAT5 phosphorylation (converted)
Procedure: (§1) A flow cytometry analysis was also performed to establish compound selectivity for JAK1 over JAK2, ex vivo using human whole blood.
The increase in phosphorylation of STAT5 by GM-CSF in monocytes was measured using an anti phospho-STAT5 antibody by FACS.
(§2) Remaining diluted Lyse/Fix buffer was discarded.
10 μg rhGM-CSF (AbCys S.A., Cat N°P300-03) was dissolved in 100 μl of PBS 0.1% BSA to obtain a 100 μg/ml stock solution. The stock solution was stored aliquoted at −80° C.
Control-treated samples received DMSO without any test compound.
(§3) Human blood was collected in heparinized tubes.
50,000 total events were counted and Phospho-STAT5 positive cells were measured after gating on CD14+ cells.

[3] = tested on: collagen induced arthritis; assay: Rat collagen induced arthritis (CIA) model; type: in vivo
Procedure: Completed Freund's adjuvant (CFA) and incomplete Freund's adjuvant (IFA) were purchased from Difco. Bovine collagen type II (CII), lipopolysaccharide (LPS), and Enbrel were obtained from Chondrex (Isle d'Abeau, France); Sigma (P4252, L'Isle d'Abeau, France), Whyett (25 mg injectable syringe, France) Acros Organics (Palo Alto, Calif.), respectively. All other reagents used were of reagent grade and all solvents were of analytical grade.
Dark Agouti rats (male, 7-8 weeks old) are obtained from Harlan Laboratories (Maison-Alfort, France). DBA/1J mice (male, 7 weeks old) were obtained from Centre d'Elevage et de Reproduction JANVIER (CERJ) (Laval, France). Rats and mice were kept on a 12 hours light/dark cycle (0700-1900). The temperature was maintained at 22° C., and food and water were provided ad libitum.
One day before the experiment, CII solution (2 mg/mL) was prepared with 0.05 M acetic acid and stored at 4° C. Just before the immunization, equal volumes of adjuvant (IFA) and CII were mixed by a homogenizer in a pre-cooled glass bottle in an ice water bath. Extra adjuvant and prolonged homogenization might be required if an emulsion is not formed.
Rat: 0.2 mL of the emulsion is injected intradermally at the base of the tail of each rat on day 1, a second booster intradermal injection (CII solution at 2 mg/mL in CFA 0.1 mL saline) is performed on day 9. This immunization method is modified from published methods (Sims N A et al., (2004) Targeting osteoclasts with zoledronic acid prevents bone destruction in collagen-induced arthritis, Arthritis Rheum. 50 2338-2346; Jou et al., 2005).
The therapeutic effects of the test compounds were tested in the rat or mouse CIA model. Animals were randomly divided into equal groups and each group contained 10 animals. All rats are immunized on day 1 and boosted on day 9. All mice were immunized on day 1 and boosted on day 21. Therapeutic dosing lasted from day 16 to day 30. The negative control group was treated with vehicle (MC 0.5%) and the positive control group with Enbrel (10 mg/kg, 3× week., s.c.). A compound of interest was typically tested at 3 doses, e.g. 3, 10, 30 mg/kg, p.o.
Arthritis was scored according the method of Khachigian 2006, Lin et al 2007 and Nishida et al. 2004). […]
AUC of clinical score (AUC score): The area under the curve (AUC) from day 1 to day 14 was calculated for each individual rat. The AUC of each animal was divided by the average AUC obtained for the vehicle in the study from which the data on that animal was obtained and multiplied by 100 (i.e. the AUC was expressed as a percentage of the average vehicle AUC per study).
Clinical score increase from day 1 to day 14 (End point score): The clinical score difference for each animal was divided by the average clinical score difference obtained for the vehicle in the study from which the data on that animal was obtained and multiplied by 100 (i.e. the difference was expressed as a percentage of the average clinical score difference for the vehicle per study).
Post-mortem, a Larsen' score was derived for both hind paws of all rats by at least 2 scientists. The average of these scores was calculated to obtain one Larsen' score per rat. […]

[4] = tested on: MMP13 levels in SW1353 cells; assay: OSM/IL-1β signaling assay (MMP13); type: cell-based; settings: Homo sapiens, 25 ng/mL OSM and 1 ng/mL IL-1β, 48 hours, average ± standard error of the mean
Source text: 5% CO2. […] The data are expressed as the average EC50 from the assays±standard error of the mean.

[5] = tested on: JAK1-dependent pathway (IL-6 stimulated STAT1 phosphorylation, CD4+ cells) in human whole blood; assay: Whole blood assay, IL-6 stimulation, Phospho-STAT1 FACS; type: cell-based
Procedure: as §1, §2
The stock solution was stored aliquoted at −80° C.
Control-treated samples received DMSO instead of compound.
as §3

## CC1(C)CN(C(=O)c2ccc(-c3cccc4nc(NC(=O)C5CC5)nn34)cc2)C1 [Compound 1, Cyclopropanecarboxylic acid{5-[4-(3,3-dimethyl-azetidine-1-carbonyl)-phenyl]-[1,2,4]triazolo[1,5-a]pyridin-2-yl}-amide]
[1]; additional data analysis protocol (R2 > 0.8, hill slope < 3)
  IC50: 617 nM
[1]; human whole blood
  IC50: 479 nM
[1]; IFNα pSTAT1 vs GM-CSF IL-8, human whole blood
  selectivity for the JAK1 pathway versus the JAK2 pathway: 28 fold
[1]; additional data analysis protocol, IFNα pSTAT1 vs GM-CSF IL-8
  selectivity for the JAK1 pathway versus the JAK2 pathway: 17.6 fold
[2]
  IC50: 4270 nM
[3]; rat CIA
  dose from which significant improvement of paw swelling was seen: ≥ 1 mg/kg
  dose from which significant improvement of the AUC of the clinical score was seen: ≥ 10 mg/kg
  dose from which significant improvement of the Larsen' score was seen: ≥ 30 mg/kg
  dose from which significant improvement of the endpoint clinical score was seen: ≥ 1 mg/kg
[3]; rat, 30, 10, 3, and 1 mg/kg
  efficacy in the rat CIA study: efficacious in all readouts
[4]
  EC50: 4200 ± 2370 nM
[5]; Homo sapiens, IL-6 stimulation, FACS, CD4+ cells, mean of 3 healthy volunteers, read-out: pIC50 in the inhibition of STAT1 phosphorylation (converted)
  IC50: 245 nM
[5]; IL-6 pSTAT1 vs GM-CSF pSTAT5, human whole blood FACS
  selectivity for JAK1 vs. JAK2 (STAT1 vs STAT5): 17.6 fold

Reference: patent publication US8796457B2, “Compound useful for the treatment of degenerative and inflammatory diseases” (Galapagos NV, priority 2009, dated 2014)
